One test has as its target JAK2 (Homo sapiens, UniProt O60674). Briefly: in vitro JAK2 kinase activity test, Mobility Shift Assay. The test is classed as biochemical. Particulars: compound concentration 0.1 μM; read-out: Percentage of inhibition against JAK2 at 0.1 μM. As to the method: The in vitro JAK2 and FLT3 kinase activity test was performed on the compounds of the 2-aminopyrimidine backbone of the above formula I (concentration 0.1 μM) according to the present invention using Mobility Shift Assay. The control compounds Pacritinib and Fedratinib were prepared by our research group.
(§1) The kinase buffer was composed of 50 mM HEPEs (pH 7.5) and 0.0015% BRIJ-35. The stop buffer contained a mixture of 100 mM HEPES (pH 7.5), 0.015% BRIJ-35, 0.2% coating reagent #3 and 50 mM EDTA. The compound to be tested was diluted with 100% DMSO to 50 times the highest concentration required in the reaction. The dilution of compound to be tested (100 μL) was transferred to the wells of a 96-well plate. […] was added to two wells of the plate as a control group and the plate was marked as the source plate. 10 μL of compound was transferred from the source plate to a new 96-well plate to prepare an intermediate plate. In the intermediate plate, an additional 90 μL of kinase buffer was added to each well. The intermediate plate was shaken for 10 minutes, and then 5 μL of each well of the 96-well intermediate plate was copied to a 384-well plate as an analysis plate. The prepared enzyme solution was added to each well of the 384-well plate, then incubated at room temperature for 10 minutes, and then 10 μL of the prepared peptide solution (FAM-labeled peptide and ATP in kinase-based buffer) was added. The sample was incubated at 28° C. for 1 hours, and then 25 μL of buffer was added. The conversion data from the Caliper program was copied and converted to the inhibition rate.
(§2) Inhibition rate (%)=(max−conversion)/(max−min)×100.

Test [1] concerns human erythroleukemia cells HEL. The experiment in a line: anti-tumor cell proliferation activity (CCK-8), HEL. Format: cell-based. Conditions: 72 hours incubation. How it is done:
(§3) The compound of the 2-aminopyrimidine skeleton of the above formula I according to the present invention was tested in vitro to inhibit the activity of human erythroleukemia cells HEL and human myeloid monocytic leukemia cells Molm-13. The control compounds Pacritinib and Fedratinib were prepared by our research group.
(§4) After the cells are resuscitated and passaged 2-3 times to stable state, 10 μL of the cell suspension was pipetted to a cell counting plate for counting, and the cell concentration was adjusted to 10×10^4 cells/mL. No cell solution was added to the outermost wells of the 96-well plate, and 100 μL of cell suspension was added to each of the remaining wells. 100 μL of medium was added to wells B2-B7 as a control group, and other wells were added with different concentrations of the compounds to be tested. After 72 hours of incubation in the incubator, 200 μL, of fresh medium was added to well A1 as a blank group, and then 20 µL of CCK-8 solution was added to each well, and the incubation continued for 4 hours. The 96-well plate was shaken at room temperature for 3 minutes, and then the absorbance at 450 nm wavelength was measured with a microplate reader, and the inhibition rate of cell growth was calculated according to the following formula:
(§5) Inhibition rate (%)=[(A control−A addition)/(A control−A blank)]×100
(§6) IC50 is the drug concentration required to inhibit half of the cell growth. According to the results of drug concentration and inhibition rate, GraphPad Prism version 5 software is used to calculate IC50 through the dose-effect curve.

Test [2] relates to human myeloid monocytic leukemia cells Molm-13. The experiment in a line: anti-tumor cell proliferation activity (CCK-8), Molm-13. Format: cell-based. Particulars: Molm-13 cells, 72 hours incubation. As to the method: as §3, §4, §5, §6
Another test addresses T1, FLT3 (Homo sapiens, UniProt P36888).
T1 sequence (P36888 27-993): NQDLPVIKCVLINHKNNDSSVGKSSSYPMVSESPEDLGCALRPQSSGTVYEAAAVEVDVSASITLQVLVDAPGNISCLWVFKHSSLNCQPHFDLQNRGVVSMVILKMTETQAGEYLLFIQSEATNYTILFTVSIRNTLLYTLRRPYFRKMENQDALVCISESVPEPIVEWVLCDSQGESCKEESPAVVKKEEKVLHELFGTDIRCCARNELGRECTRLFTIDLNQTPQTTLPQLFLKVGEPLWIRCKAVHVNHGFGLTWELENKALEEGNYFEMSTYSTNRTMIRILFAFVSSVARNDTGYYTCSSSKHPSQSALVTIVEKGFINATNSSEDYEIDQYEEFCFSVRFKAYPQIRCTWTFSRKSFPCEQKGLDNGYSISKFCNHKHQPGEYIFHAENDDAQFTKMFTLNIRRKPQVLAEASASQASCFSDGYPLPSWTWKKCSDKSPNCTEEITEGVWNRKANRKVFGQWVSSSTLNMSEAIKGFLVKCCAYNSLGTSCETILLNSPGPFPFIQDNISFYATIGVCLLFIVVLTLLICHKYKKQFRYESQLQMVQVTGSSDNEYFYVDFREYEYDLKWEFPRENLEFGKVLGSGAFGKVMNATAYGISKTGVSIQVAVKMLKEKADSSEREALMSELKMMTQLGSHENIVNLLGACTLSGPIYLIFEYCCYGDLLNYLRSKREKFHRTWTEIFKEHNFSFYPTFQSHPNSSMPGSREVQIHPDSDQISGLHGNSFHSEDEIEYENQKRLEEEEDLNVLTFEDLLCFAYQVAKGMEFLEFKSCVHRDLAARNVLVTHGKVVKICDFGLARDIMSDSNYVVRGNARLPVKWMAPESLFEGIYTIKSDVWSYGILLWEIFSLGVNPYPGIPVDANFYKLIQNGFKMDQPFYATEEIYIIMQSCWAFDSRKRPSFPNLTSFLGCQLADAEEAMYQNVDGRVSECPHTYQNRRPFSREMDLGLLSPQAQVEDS
Briefly: in vitro FLT3 kinase activity test, Mobility Shift Assay. Format: biochemical. Particulars: compound concentration 0.1 μM; read-out: Percentage of inhibition against FLT3 at 0.1 μM. How it is done:
The in vitro JAK2 and FLT3 kinase activity test was performed on the compounds of the 2-aminopyrimidine backbone of the above formula I (concentration 0.1 μM) according to the present invention using Mobility Shift Assay.
as §1, §2

Sequence of JAK2 (O60674 whole entry): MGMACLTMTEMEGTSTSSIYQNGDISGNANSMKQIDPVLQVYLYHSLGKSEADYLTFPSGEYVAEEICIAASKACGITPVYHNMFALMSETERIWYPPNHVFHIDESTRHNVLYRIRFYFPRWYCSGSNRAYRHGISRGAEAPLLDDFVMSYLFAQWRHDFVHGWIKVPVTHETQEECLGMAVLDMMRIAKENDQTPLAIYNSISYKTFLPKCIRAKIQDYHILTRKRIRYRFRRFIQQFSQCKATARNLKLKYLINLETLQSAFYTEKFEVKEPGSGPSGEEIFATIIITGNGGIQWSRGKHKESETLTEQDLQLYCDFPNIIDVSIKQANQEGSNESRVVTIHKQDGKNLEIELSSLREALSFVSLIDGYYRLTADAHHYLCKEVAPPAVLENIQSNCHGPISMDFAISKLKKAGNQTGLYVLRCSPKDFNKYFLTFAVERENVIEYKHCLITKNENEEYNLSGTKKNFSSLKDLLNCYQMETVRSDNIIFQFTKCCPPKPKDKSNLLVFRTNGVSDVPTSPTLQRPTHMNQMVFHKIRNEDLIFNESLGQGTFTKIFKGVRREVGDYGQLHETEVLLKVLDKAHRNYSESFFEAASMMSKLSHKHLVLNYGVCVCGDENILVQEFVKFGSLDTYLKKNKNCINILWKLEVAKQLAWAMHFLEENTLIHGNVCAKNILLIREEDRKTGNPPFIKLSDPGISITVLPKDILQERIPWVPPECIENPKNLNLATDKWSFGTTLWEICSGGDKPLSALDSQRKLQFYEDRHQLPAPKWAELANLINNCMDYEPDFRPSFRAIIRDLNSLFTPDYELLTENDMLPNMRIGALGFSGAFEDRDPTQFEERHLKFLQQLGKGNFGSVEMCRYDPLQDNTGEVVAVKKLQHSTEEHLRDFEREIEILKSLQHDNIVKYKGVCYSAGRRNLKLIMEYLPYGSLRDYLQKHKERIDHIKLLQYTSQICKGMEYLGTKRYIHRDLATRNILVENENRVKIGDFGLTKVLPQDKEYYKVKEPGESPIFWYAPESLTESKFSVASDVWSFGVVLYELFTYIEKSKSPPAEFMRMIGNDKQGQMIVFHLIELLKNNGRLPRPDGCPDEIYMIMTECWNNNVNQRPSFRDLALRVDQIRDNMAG

As to `C1=C/COCc2cc(ccc2OCCN2CCCC2)Nc2nccc(n2)-c2cccc(c2)COC/1` [Pacritinib, reference compound], the inhibition (as a rule, how much of the control response was suppressed) at 0.1 µM on JAK2 was 92%. Besides, the IC50 (usually the midpoint of a concentration-inhibition curve) in test [1] was 1100 nM; in test [2], 23 nM.

For `Cc1cnc(Nc2ccc(OCCN3CCCC3)cc2)nc1Nc1cccc(S(=O)(=O)NC(C)(C)C)c1` [Fedratinib, reference compound], the inhibition at 0.1 µM was found to be 95.2% on JAK2 and 88.7% on FLT3. The IC50 in test [1] stood at 890 nM; in test [2], 68 nM.

In the case of `Cc1cnc(Nc2ccc(N3CCOCC3)cc2)nc1N1CCN(C(=O)Nc2ccc(C#N)cc2)CC1` [Example 20, N-(4-cyanophenyl)-4-(5-methyl-2-{[4-(morpholin-4-yl)phenyl]amino}pyrimidin-4-yl)piperazine-1-carboxamide], the inhibition at 0.1 µM on JAK2 was 88.5%; at FLT3, 95.2%. In addition, the IC50 was found to be 900 nM in test [1] and 72 nM in test [2].

Take `CC(=O)c1ccc(NC(=O)N2CCC(Nc3nc(Nc4ccc(N5CCOCC5)cc4)ncc3C)CC2)cc1` [Example 32, N-(4-acetylphenyl)-4-[(5-methyl-2-{[4-(morpholin-4-yl)phenyl]amino}pyrimidin-4-yl)amino]piperidine-1-carboxamide]: the inhibition at 0.1 µM came to 80.5% on JAK2 and 78.6% at FLT3. The half-maximal inhibitory concentration (IC50) was found to be 6700 nM in test [1] and 350 nM in test [2].

Take `CC(=O)c1ccc(NC(=O)N2CCN(c3ccnc(Nc4ccc(N5CCOCC5)cc4)n3)CC2)cc1` [Example 6, N-(4-acetylphenyl)-4-(2-{[4-(morpholin-4-yl)phenyl]amino}pyrimidin-4-yl)piperazine-1-carboxamide]: the inhibition at 0.1 µM at JAK2 was 76.7%; on FLT3, 72.3%. In addition, the IC50 in test [1] came to 4300 nM; in test [2], 77 nM.

For the compound `CC(=O)c1ccc(NC(=O)N2CCN(c3nc(Nc4ccc(N5CCOCC5)cc4)ncc3C(F)(F)F)CC2)cc1` [Example 26, N-(4-acetylphenyl)-4-(5-trifluoromethyl-2-{[4-(morpholin-4-yl)phenyl]amino}pyrimidin-4-yl)piperazine-1-carboxamide], the inhibition at 0.1 µM at JAK2 amounted to 74.6%; at FLT3 it was 82.5%. For the same compound, the concentration for half-maximal inhibition (IC50) amounted to 4600 nM in test [1] and 83 nM in test [2].

Regarding `CC(=O)c1ccc(NC(=O)C2CCN(c3nc(Nc4ccc(N5CCOCC5)cc4)ncc3C)CC2)cc1` [Example 33, N-(4-acetylphenyl)-1-(5-methyl-2-{[4-(morpholin-4-yl)phenyl]amino}pyrimidin-4-yl)piperidine-4-carboxamide], the values for the inhibition at 0.1 µM on JAK2 and at FLT3 were 74.3% and 97%, respectively. The values for the concentration for half-maximal inhibition (IC50) in test [1] and in test [2] were 1700 nM and 62 nM, respectively.

Regarding `CC(=O)c1ccc(NC(=O)N2CCN(c3nc(Nc4ccc(N5CCOCC5)cc4)ncc3C)CC2)cc1` [Example 22, N-(4-acetylphenyl)-4-(5-methyl-2-{[4-(morpholin-4-yl)phenyl]amino}pyrimidin-4-yl)piperazine-1-carboxamide], the inhibition at 0.1 µM on JAK2 was found to be 81.8%; on FLT3 it was 99.1%. The IC50 was 800 nM in test [1] and 42 nM in test [2].

`CC(=O)c1ccc(NC(=O)N2CCN(c3nc(Nc4ccc(N5CCOCC5)cc4)nc4ccsc34)CC2)cc1` [Example 24, N-(4-acetylphenyl)-4-(2-{[4-(morpholin-4-yl)phenyl]amino}thieno[3,2-d]pyrimidin-4-yl)piperazine-1-carboxamide]: the inhibition at 0.1 µM at JAK2 is 44%; on FLT3, 68%.

(Values after patent US20220259196A1, “2-AMINOPYRIMIDINE COMPOUND AND USES THEREOF” (Shenyang Pharmaceutical University, priority 2019, published 2022).)
